{
  "source": "paper PMC8035703",
  "about": "“Effect of Synchronous Versus Sequential Regimens on the Pharmacokinetics and Biodistribution of Regorafenib with Irradiation” (Pharmaceutics, 2021)",
  "key": {"[1]": {"test": "Organ distribution of regorafenib in rats with or without RT", "format": "in vivo, Sprague-Dawley rats", "settings": "for concentration at 4 h: male, Sprague-Dawley, 16 mg/kg, 4 h after oral administration", "protocol": "According to the formula used to translate doses from animal to human, human equivalent dose (HED, mg/kg) = animal dose (mg/kg) × animal km/human km, we calculated the daily dose of regorafenib for rats to be 16 (mg/kg/day). The rats were randomly divided into ten groups with six rats in each group. The concurrent groups treated with regorafenib 1 h after RT, in the same day, to mimic regorafenib concurrent with RT in the daily practice. The sequential groups treated with regorafenib following RT (not in the same day), to mimic RT followed by regorafenib in the daily practice. The one fraction study group included (A) a sham group, regorafenib with RT0 Gy (regorafenib × 1 d); concurrent groups treated with regorafenib 1 h after (B) RT2 Gy with 1 fraction (RT2 Gy × 1 f’x) and (D) RT9 Gy with 1 fraction (RT9 Gy × 1 f’x); and sequential groups treated with regorafenib 24 h after (C) RT2 Gy × 1 f’x and (E) RT9 Gy × 1 f’x. Continued treatment mimicking clinical practice was applied to (A) a sham group, regorafenib (p.o. (per os), q.d. × 3 d) with RT0 Gy (regorafenib × 3 d); concurrent groups treated with regorafenib (p.o., q.d. × 3 d) 1 h after (B) RT2 Gy with 3 fractions (RT2 Gy × 3 f’x) and (D) RT9 Gy with 3 fractions (RT9Gy × 3 f’x); and sequential groups treated with regorafenib 24 h (p.o., q.d. × 3 d) after (C) RT2 Gy × 3 f’x and (E) RT9 Gy × 3 f’x. (Figure 1A,B).\nOrgans, including the brain, liver, heart, spleen, lung and kidney, were collected, weighed and stored at −20 °C, until analysis.\nThe organ samples were homogenized in 50% aqueous acetonitrile (sample weight: volume = 1:5) and centrifuged at 13,000× g, for 10 min, at 4 °C. The supernatant was stored at −20 °C, until analysis. Additionally, 150 μL of IS solution (diethylstilbestrol) was combined with each organ sample (50 μL) for protein precipitation. Finally, the filtrate (20 μL) was analyzed by HPLC."}, "Huh-7 cells": {"system": "Huh-7 cells", "test": "Cell viability assay (MTT), Huh-7", "format": "cell-based, human", "settings": "for IC50 / viability at 5 µM / viability at 10 µM / viability at 20 µM: Homo sapiens; for IC50: MTT after 24 h, read-out: IC50 (estimated concentration at which 50% of cells were killed); for viability at 5 µM: Huh-7, regorafenib 5 μM; for viability at 10 µM: Huh-7, regorafenib 10 μM; for viability at 20 µM: Huh-7, regorafenib 20 μM", "protocol": "Human hepatoma Huh-7 and Hep G2 cell lines kindly provided by Professor Hu (Taipei Veterans General Hospital, Taiwan) were plated into 96-well plates (1 × 10^3 per well) with serum-containing medium (100 μL) for 1 day. Regorafenib at concentrations of 0, 5, 10 and 20 μmol/L (μM) was added to the plates. Then, the study groups were designed: the concurrent group (1 h after irradiation) or sequential group (24 h after irradiation) with sham RT (RT0 Gy), 2 Gy (RT2 Gy) and 9 Gy (RT9 Gy). Additionally, after 24 h, 20 μL of 5 mg/mL MTT was added to the plates and incubated for 3 h. The supernatant was discarded, the precipitate was dissolved in 200 μL DMSO, and the plates were read with a microplate reader at 570 nm and a reference wavelength of 630 nm."}, "CYP3A4": {"system": "CYP3A4", "design": "method as in PMID 21170960", "settings": "cited from earlier work"}, "HCC patients": {"system": "HCC patients", "design": "method as in PMID 29704513", "settings": "patients treated with sorafenib followed by regorafenib; cited from earlier work"}},
  "note": "Like-named read-outs stand apart in the source and are kept apart here.",
  "data": [
    {"compound": "CNC(=O)c1cc(Oc2ccc(NC(=O)Nc3ccc(Cl)c(C(F)(F)F)c3)c(F)c2)ccn1", "note": "[regorafenib, Regorafenib]", "values": [
      {"measurement": "concentration at 4 h", "setting": "[1]; rat, liver, oral, rat, RT9 Gy × 3 f'x with regorafenib 16 mg/kg × 3 d (concurrent), read-out: Concentration in liver", "result": "700 ± 290", "unit": "ng/g"},
      {"measurement": "concentration at 4 h", "setting": "[1]; rat, liver, po, rat, 16 mg/kg p.o. × 1 d, no RT, read-out: Concentration in liver", "result": "1460 ± 340", "unit": "ng/g"},
      {"measurement": "concentration at 4 h", "setting": "[1]; rat, liver, po, rat, 16 mg/kg p.o. × 3 d, no RT, read-out: Concentration in liver", "result": "1450 ± 740", "unit": "ng/g"},
      {"measurement": "concentration at 4 h", "setting": "[1]; rat, lung, oral, rat, RT2 Gy × 1 f'x with regorafenib 16 mg/kg × 1 d (concurrent), read-out: Concentration in lung", "result": "290 ± 190", "unit": "ng/g"},
      {"measurement": "concentration at 4 h", "setting": "[1]; rat, lung, oral, rat, RT9 Gy × 1 f'x followed by regorafenib 16 mg/kg × 1 d (sequential), read-out: Concentration in lung", "result": "1010 ± 700", "unit": "ng/g"},
      {"measurement": "concentration at 4 h", "setting": "[1]; rat, lung, oral, rat, RT9 Gy × 3 f'x followed by regorafenib 16 mg/kg × 3 d (sequential), read-out: Concentration in lung", "result": "370 ± 230", "unit": "ng/g"},
      {"measurement": "concentration at 4 h", "setting": "[1]; rat, lung, oral, rat, RT9 Gy × 3 f'x with regorafenib 16 mg/kg × 3 d (concurrent), read-out: Concentration in lung", "result": "250 ± 180", "unit": "ng/g"},
      {"measurement": "concentration at 4 h", "setting": "[1]; rat, lung, po, rat, 16 mg/kg p.o. × 1 d, no RT, read-out: Concentration in lung", "result": "470 ± 180", "unit": "ng/g"},
      {"measurement": "concentration at 4 h", "setting": "[1]; rat, lung, po, rat, 16 mg/kg p.o. × 3 d, no RT, read-out: Concentration in lung", "result": "1120 ± 250", "unit": "ng/g"},
      {"measurement": "concentration at 4 h", "setting": "[1]; rat, spleen, oral, rat, RT2 Gy × 1 f'x with regorafenib 16 mg/kg × 1 d (concurrent), read-out: Concentration in spleen", "result": "190 ± 70", "unit": "ng/g"},
      {"measurement": "concentration at 4 h", "setting": "[1]; rat, spleen, oral, rat, RT9 Gy × 1 f'x followed by regorafenib 16 mg/kg × 1 d (sequential), read-out: Concentration in spleen", "result": "680 ± 450", "unit": "ng/g"},
      {"measurement": "concentration at 4 h", "setting": "[1]; rat, spleen, oral, rat, RT9 Gy × 3 f'x followed by regorafenib 16 mg/kg × 3 d (sequential), read-out: Concentration in spleen", "result": "230 ± 310", "unit": "ng/g"},
      {"measurement": "concentration at 4 h", "setting": "[1]; rat, spleen, oral, rat, RT9 Gy × 3 f'x with regorafenib 16 mg/kg × 3 d (concurrent), read-out: Concentration in spleen", "result": "100 ± 80", "unit": "ng/g"},
      {"measurement": "concentration at 4 h", "setting": "[1]; rat, spleen, po, rat, 16 mg/kg p.o. × 1 d, no RT, read-out: Concentration in spleen", "result": "260 ± 100", "unit": "ng/g"},
      {"measurement": "concentration at 4 h", "setting": "[1]; rat, spleen, po, rat, 16 mg/kg p.o. × 3 d, no RT, read-out: Concentration in spleen", "result": "380 ± 220", "unit": "ng/g"},
      {"measurement": "Concentrations of regorafenib in the brain (in words)", "setting": "[1]; rat, all regimens", "result": "very limited"},
      {"measurement": "Biodistribution in heart, liver, lung, spleen and kidneys (in words)", "setting": "[1]; sequential RT2 Gy × 1 f'x and RT9 Gy × 1 f'x vs control (regorafenib × 1 d)", "result": "increased the biodistribution of regorafenib"},
      {"measurement": "Effect on viability of Huh-7 cells (in words)", "setting": "Huh-7 cells; 0-20 μM", "result": "inhibited the viability of Huh-7 cells in a dose-dependent manner"},
      {"measurement": "IC50", "setting": "Huh-7 cells; Huh-7, 24 h, Huh-7, RT0 Gy, S (regorafenib added 24 h following RT)", "result": 12.8, "unit": "µM"},
      {"measurement": "IC50", "setting": "Huh-7 cells; Huh-7, 24 h, Huh-7, RT2 Gy, S (regorafenib added 24 h following RT)", "result": 12.1, "unit": "µM"},
      {"measurement": "IC50", "setting": "Huh-7 cells; Huh-7, 24 h, Huh-7, RT9 Gy, S (regorafenib added 24 h following RT)", "result": 15.2, "unit": "µM"},
      {"measurement": "IC50", "setting": "Huh-7 cells; Huh-7, Huh-7, RT0 Gy, C (regorafenib added 1 h following RT)", "result": 6.56, "unit": "µM"},
      {"measurement": "IC50", "setting": "Huh-7 cells; Huh-7, Huh-7, RT2 Gy, C (regorafenib added 1 h following RT)", "result": 6.38, "unit": "µM"},
      {"measurement": "IC50", "setting": "Huh-7 cells; Huh-7, Huh-7, RT9 Gy, C (regorafenib added 1 h following RT)", "result": 6.36, "unit": "µM"},
      {"measurement": "viability at 5 µM", "setting": "Huh-7 cells; Huh-7, RT0 Gy, C", "result": "60.9 ± 1.8", "unit": "%"},
      {"measurement": "viability at 5 µM", "setting": "Huh-7 cells; Huh-7, RT0 Gy, S", "result": "72.6 ± 1", "unit": "%"},
      {"measurement": "viability at 5 µM", "setting": "Huh-7 cells; Huh-7, RT2 Gy, C", "result": "59.8 ± 5.5", "unit": "%"},
      {"measurement": "viability at 5 µM", "setting": "Huh-7 cells; Huh-7, RT2 Gy, S", "result": "59.5 ± 2.7", "unit": "%"},
      {"measurement": "viability at 5 µM", "setting": "Huh-7 cells; Huh-7, RT9 Gy, C", "result": "62.3 ± 14.1", "unit": "%"},
      {"measurement": "viability at 5 µM", "setting": "Huh-7 cells; Huh-7, RT9 Gy, S", "result": "60.2 ± 5.6", "unit": "%"},
      {"measurement": "viability at 10 µM", "setting": "Huh-7 cells; Huh-7, RT0 Gy, C", "result": "35.1 ± 1.6", "unit": "%"},
      {"measurement": "viability at 10 µM", "setting": "Huh-7 cells; Huh-7, RT0 Gy, S", "result": "55.2 ± 1.2", "unit": "%"},
      {"measurement": "viability at 10 µM", "setting": "Huh-7 cells; Huh-7, RT2 Gy, C", "result": "33.9 ± 2.7", "unit": "%"},
      {"measurement": "viability at 10 µM", "setting": "Huh-7 cells; Huh-7, RT2 Gy, S", "result": "46 ± 2.9", "unit": "%"},
      {"measurement": "viability at 10 µM", "setting": "Huh-7 cells; Huh-7, RT9 Gy, C", "result": "34.3 ± 5.3", "unit": "%"},
      {"measurement": "viability at 10 µM", "setting": "Huh-7 cells; Huh-7, RT9 Gy, S", "result": "47.6 ± 3", "unit": "%"},
      {"measurement": "viability at 20 µM", "setting": "Huh-7 cells; Huh-7, RT0 Gy, C", "result": "15.4 ± 1", "unit": "%"},
      {"measurement": "viability at 20 µM", "setting": "Huh-7 cells; Huh-7, RT0 Gy, S", "result": "41.4 ± 0.4", "unit": "%"},
      {"measurement": "viability at 20 µM", "setting": "Huh-7 cells; Huh-7, RT2 Gy, C", "result": "14.4 ± 0.8", "unit": "%"},
      {"measurement": "viability at 20 µM", "setting": "Huh-7 cells; Huh-7, RT2 Gy, S", "result": "36.3 ± 1.4", "unit": "%"},
      {"measurement": "viability at 20 µM", "setting": "Huh-7 cells; Huh-7, RT9 Gy, C", "result": "14.1 ± 0.7", "unit": "%"},
      {"measurement": "viability at 20 µM", "setting": "Huh-7 cells; Huh-7, RT9 Gy, S", "result": "41.1 ± 1.7", "unit": "%"},
      {"measurement": "Viability: concurrent regorafenib with RT2 Gy and RT9 Gy vs regorafenib only (in words)", "setting": "Huh-7 cells; Huh-7 and Hep G2", "result": "no synergistic effects"},
      {"measurement": "Viability with regorafenib following RT2 Gy and RT9 Gy (in words)", "setting": "Huh-7 cells; Huh-7 and Hep G2, regorafenib 10 and 20 μM, sequential", "result": "higher than the regorafenib-only and concurrent regimen"},
      {"measurement": "Metabolic pathway (in words)", "setting": "CYP3A4", "result": "metabolized via CYP3A4"},
      {"measurement": "Median overall survival", "setting": "HCC patients", "result": 26, "unit": "months"}
    ]}
  ]
}
